From the supplement of paper PMC10307832

Experiments:
Assay in all cases: relative viability (nuclei count vs DMSO), 5 days (fraction); higher = more cells survive
Vemurafenib + Dasatinib = compound: CCCS(=O)(=O)Nc1ccc(F)c(C(=O)c2c[nH]c3ncc(-c4ccc(Cl)cc4)cc23)c1F [Vemurafenib] + Cc1nc(Nc2ncc(C(=O)Nc3c(C)cccc3Cl)s2)cc(N2CCN(CCO)CC2)n1 [Dasatinib] (partner 0.075 µM)
Outline: (§1)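 Relative viability was taken as the ratio of nuclei in treated wells to nuclei in vehicle wells. Lung cancer cell lines in 1536-well plates received compounds by pin tool one day after seeding, either one drug alone or a fixed anchor-drug dose plus five library-drug doses (not always all listed) in √10 steps. Nuclei were counted on 4× images after 5 days of treatment, and values are medians of duplicate plates.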

OSI-027 + Trametinib = compound: COc1cccc2cc(-c3nc([C@H]4CC[C@H](C(=O)O)CC4)n4ncnc(N)c34)[nH]c12 [OSI-027] + CC(=O)Nc1cccc(-n2c(=O)n(C3CC3)c(=O)c3c(Nc4ccc(I)cc4F)n(C)c(=O)c(C)c32)c1 [Trametinib] (partner 0.02 µM)
Outline: as §1

Alpelisib + Vorinostat = compound: Cc1nc(NC(=O)N2CCC[C@H]2C(N)=O)sc1-c1ccnc(C(C)(C)C(F)(F)F)c1 [Alpelisib] + O=C(CCCCCCC(=O)Nc1ccccc1)NO [Vorinostat] (partner 1 µM)
Outline: as §1

OSI-027 + Navitoclax = compound: COc1cccc2cc(-c3nc([C@H]4CC[C@H](C(=O)O)CC4)n4ncnc(N)c34)[nH]c12 [OSI-027] + CC1(C)CCC(c2ccc(Cl)cc2)=C(CN2CCN(c3ccc(C(=O)NS(=O)(=O)c4ccc(N[C@H](CCN5CCOCC5)CSc5ccccc5)c(S(=O)(=O)C(F)(F)F)c4)cc3)CC2)C1 [Navitoclax] (partner 0.5 µM)
Outline: as §1

Cell Line | relative viability (Vemurafenib + Dasatinib; first compound 0.03162 µM) | relative viability (Vemurafenib + Dasatinib; first compound 0.1 µM) | relative viability (Vemurafenib + Dasatinib; first compound 0.3162 µM) | relative viability (Vemurafenib + Dasatinib; first compound 1 µM) | relative viability (OSI-027 + Trametinib; first compound 0.01 µM) | relative viability (OSI-027 + Trametinib; first compound 0.03162 µM) | relative viability (OSI-027 + Trametinib; first compound 0.1 µM) | relative viability (OSI-027 + Trametinib; first compound 0.3162 µM) | relative viability (OSI-027 + Trametinib; first compound 1 µM) | relative viability (Alpelisib + Vorinostat; first compound 0.04 µM) | relative viability (Alpelisib + Vorinostat; first compound 0.1265 µM) | relative viability (Alpelisib + Vorinostat; first compound 0.4 µM) | relative viability (Alpelisib + Vorinostat; first compound 1.265 µM) | relative viability (Alpelisib + Vorinostat; first compound 4 µM) | relative viability (OSI-027 + Navitoclax; first compound 0.01 µM) | relative viability (OSI-027 + Navitoclax; first compound 0.03162 µM) | relative viability (OSI-027 + Navitoclax; first compound 0.1 µM) | relative viability (OSI-027 + Navitoclax; first compound 0.3162 µM) | relative viability (OSI-027 + Navitoclax; first compound 1 µM)
NCI-H2009 | 0.294 | 0.278 | 0.171 | 0.254 | 0.272 | 0.283 | 0.2 | 0.196 | 0.195 | 0.675 | 0.711 | 0.784 | 0.669 | 0.658 | 1.16 | 1.15 | 1.07 | 1.07 | 0.619
NCI-H1755 | 0.396 | 0.406 | 0.243 | 0.43 | 0.738 | 0.759 | 0.761 | 0.654 | 0.501 | 0.774 | 0.71 | 0.873 | 0.605 | 0.632 | 1.01 | 0.968 | 0.988 | 0.753 | 0.279
LCLC-97TM1 | 0.76 | 0.853 | 1.05 | 0.685 | 0.168 | 0.182 | 0.157 | 0.147 | 0.168 | 0.673 | 0.58 | 0.63 | 0.33 | 0.291 | 0.36 | 0.331 | 0.381 | 0.214 | 0.159
NCI-H2085 | 0.244 | 0.273 | 0.515 | 0.256 | 0.504 | 0.514 | 0.429 | 0.313 | 0.281 | 0.801 | 0.686 | 0.888 | 0.754 | 0.633 | 1.11 | 1.12 | 1.1 | 0.931 | 0.7
NCI-H647 | 0.16 | 0.198 | 0.0963 | 0.188 | 0.367 | 0.395 | 0.438 | 0.385 | 0.236 | 0.772 | 0.608 | 0.613 | 0.263 | 0.427 | 1.18 | 1.11 | 1.09 | 0.994 | 0.643
BEN | 0.274 | 0.257 | – | 0.309 | 0.9 | 0.787 | 0.709 | 0.527 | 0.505 | 0.588 | 0.544 | 0.715 | 0.578 | 0.584 | 0.0799 | 0.0753 | 0.0684 | 0.0639 | 0.0589
NCI-H1944 | 0.198 | 0.189 | 0.192 | 0.199 | 0.379 | 0.399 | 0.405 | 0.355 | 0.298 | 0.538 | 0.554 | 0.597 | 0.399 | 0.326 | 1.1 | 1.04 | 1.03 | 0.963 | 0.719
NCI-H1395 | 0.415 | 0.411 | – | 0.403 | 1.1 | 1.02 | 0.957 | 0.863 | 0.648 | 0.742 | 0.565 | 0.773 | 0.62 | 0.537 | 1.16 | 0.998 | 1.03 | 0.85 | 0.79
201T | 0.525 | 0.521 | 0.622 | 0.523 | 0.742 | 0.716 | 0.717 | 0.717 | 0.674 | 0.928 | 0.928 | 0.949 | 0.842 | 0.831 | 1.25 | 1.24 | 1.2 | 1.22 | 1.13
NCI-H2405 | 0.213 | 0.231 | – | 0.231 | 0.643 | 0.663 | 0.597 | 0.471 | 0.373 | 1.13 | 1.06 | 1.06 | 0.682 | 0.59 | 0.858 | 0.791 | 0.768 | 0.636 | 0.384
RERF-LC-KJ | 0.768 | 0.768 | 0.586 | 0.786 | 0.709 | 0.832 | 0.815 | 0.667 | 0.406 | 0.634 | 0.707 | 0.754 | 0.504 | 0.548 | 0.795 | 1 | 0.839 | 0.672 | 0.289
NCI-H596 | 0.567 | 0.66 | 0.549 | 0.515 | 0.738 | 0.792 | 0.914 | 0.758 | 0.538 | 0.484 | 0.837 | 0.629 | 0.328 | 0.267 | 0.888 | 0.941 | 0.933 | 0.85 | 0.459
NCI-H1993 | 0.298 | – | 0.694 | 0.621 | 0.474 | 0.548 | 0.523 | 0.412 | 0.505 | 0.751 | 0.815 | 0.909 | 0.596 | 0.64 | 0.89 | 0.863 | 0.659 | 0.502 | 0.719
EPLC-272H | 0.299 | 0.25 | 0.338 | 0.41 | 0.293 | 0.278 | 0.254 | 0.236 | 0.239 | 0.474 | 0.455 | 0.465 | 0.209 | 0.222 | 1.07 | 0.901 | 1.18 | 0.897 | 1.04
